# Measurements: article PMC6386719, “A glycyl radical enzyme enables hydrogen sulfide production by the human intestinal bacterium Bilophila wadsworthia” (Proceedings of the National Academy of Sciences of the …, 2019)
# T1: AdhE (CoA-acylating aldehyde dehydrogenase) (Bilophila wadsworthia, UniProt E5Y379)
# T1 construct: His-tagged, E. coli BL21
# T1 sequence (E5Y379 1-484): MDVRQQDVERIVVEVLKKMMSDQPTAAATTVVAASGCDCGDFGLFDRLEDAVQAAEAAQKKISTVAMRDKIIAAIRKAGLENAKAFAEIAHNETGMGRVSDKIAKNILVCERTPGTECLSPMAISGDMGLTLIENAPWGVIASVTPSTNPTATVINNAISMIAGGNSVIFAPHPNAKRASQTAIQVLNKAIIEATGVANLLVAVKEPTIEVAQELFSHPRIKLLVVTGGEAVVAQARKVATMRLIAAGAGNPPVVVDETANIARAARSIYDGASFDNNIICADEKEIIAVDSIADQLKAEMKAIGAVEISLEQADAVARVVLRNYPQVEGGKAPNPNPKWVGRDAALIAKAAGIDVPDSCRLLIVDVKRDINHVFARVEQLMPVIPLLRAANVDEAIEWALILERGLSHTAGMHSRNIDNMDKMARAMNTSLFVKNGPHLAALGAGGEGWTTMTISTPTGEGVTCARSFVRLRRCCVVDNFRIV
# T2: Tpa (taurine:pyruvate aminotransferase) (Bilophila wadsworthia, UniProt E5Y945)
# T2 construct: His-tagged, E. coli Rosetta 2 DE3
# T2 sequence (E5Y945 1-456): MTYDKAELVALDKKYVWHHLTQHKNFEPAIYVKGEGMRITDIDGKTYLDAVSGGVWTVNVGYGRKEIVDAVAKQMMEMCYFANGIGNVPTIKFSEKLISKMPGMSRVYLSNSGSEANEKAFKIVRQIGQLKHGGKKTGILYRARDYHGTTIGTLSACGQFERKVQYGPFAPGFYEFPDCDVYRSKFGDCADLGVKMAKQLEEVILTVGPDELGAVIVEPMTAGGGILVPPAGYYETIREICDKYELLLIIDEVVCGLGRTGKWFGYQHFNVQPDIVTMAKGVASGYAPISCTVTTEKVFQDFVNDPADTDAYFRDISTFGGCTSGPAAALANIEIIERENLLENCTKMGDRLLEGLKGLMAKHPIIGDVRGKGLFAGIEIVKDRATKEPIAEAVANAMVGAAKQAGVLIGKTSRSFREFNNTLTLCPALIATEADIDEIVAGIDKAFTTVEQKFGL
# Assays:
# [1] = molecular target: T3, SarD (sulfoacetaldehyde reductase) (Bilophila wadsworthia, UniProt E5Y946); assay: NADH-dependent reduction to isethionate; format: biochemical
# T3 construct: His-tagged, E. coli Rosetta 2 DE3
# T3 sequence (E5Y946 whole entry): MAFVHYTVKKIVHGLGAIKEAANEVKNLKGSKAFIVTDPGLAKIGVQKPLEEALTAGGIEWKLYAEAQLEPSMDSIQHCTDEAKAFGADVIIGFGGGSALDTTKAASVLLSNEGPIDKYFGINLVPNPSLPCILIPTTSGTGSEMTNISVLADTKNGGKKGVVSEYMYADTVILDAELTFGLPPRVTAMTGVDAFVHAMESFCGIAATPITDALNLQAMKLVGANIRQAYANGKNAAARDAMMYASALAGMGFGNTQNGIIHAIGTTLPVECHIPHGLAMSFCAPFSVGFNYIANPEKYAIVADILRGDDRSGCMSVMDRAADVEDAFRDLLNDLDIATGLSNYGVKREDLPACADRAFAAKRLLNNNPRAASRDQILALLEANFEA
# [2] = molecular target: T1, AdhE (CoA-acylating aldehyde dehydrogenase); assay: conversion to acetyl-CoA; format: biochemical; details: CoASH
# [3] = molecular target: T4, IslB (GRE-activating enzyme) (Bilophila wadsworthia, UniProt E5Y377); assay: glycyl radical installation on IslA, EPR; format: biochemical; details: anoxic, acriflavine as photosensitizer
# T4 construct: His-tagged, E. coli BL21(DE3) delta-iscR::kan, anoxic purification, reconstituted, reduced with dithionite
# T4 sequence (E5Y377 whole entry): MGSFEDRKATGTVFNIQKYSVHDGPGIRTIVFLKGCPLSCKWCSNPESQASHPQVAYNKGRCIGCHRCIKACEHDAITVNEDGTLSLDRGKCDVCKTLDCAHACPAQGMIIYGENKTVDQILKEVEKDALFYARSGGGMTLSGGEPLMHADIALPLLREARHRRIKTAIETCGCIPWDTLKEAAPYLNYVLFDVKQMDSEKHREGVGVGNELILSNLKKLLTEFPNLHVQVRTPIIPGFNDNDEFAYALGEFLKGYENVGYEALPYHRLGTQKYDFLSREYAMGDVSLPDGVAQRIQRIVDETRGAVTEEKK
# T4 sequence (E5Y378 whole entry, further chain): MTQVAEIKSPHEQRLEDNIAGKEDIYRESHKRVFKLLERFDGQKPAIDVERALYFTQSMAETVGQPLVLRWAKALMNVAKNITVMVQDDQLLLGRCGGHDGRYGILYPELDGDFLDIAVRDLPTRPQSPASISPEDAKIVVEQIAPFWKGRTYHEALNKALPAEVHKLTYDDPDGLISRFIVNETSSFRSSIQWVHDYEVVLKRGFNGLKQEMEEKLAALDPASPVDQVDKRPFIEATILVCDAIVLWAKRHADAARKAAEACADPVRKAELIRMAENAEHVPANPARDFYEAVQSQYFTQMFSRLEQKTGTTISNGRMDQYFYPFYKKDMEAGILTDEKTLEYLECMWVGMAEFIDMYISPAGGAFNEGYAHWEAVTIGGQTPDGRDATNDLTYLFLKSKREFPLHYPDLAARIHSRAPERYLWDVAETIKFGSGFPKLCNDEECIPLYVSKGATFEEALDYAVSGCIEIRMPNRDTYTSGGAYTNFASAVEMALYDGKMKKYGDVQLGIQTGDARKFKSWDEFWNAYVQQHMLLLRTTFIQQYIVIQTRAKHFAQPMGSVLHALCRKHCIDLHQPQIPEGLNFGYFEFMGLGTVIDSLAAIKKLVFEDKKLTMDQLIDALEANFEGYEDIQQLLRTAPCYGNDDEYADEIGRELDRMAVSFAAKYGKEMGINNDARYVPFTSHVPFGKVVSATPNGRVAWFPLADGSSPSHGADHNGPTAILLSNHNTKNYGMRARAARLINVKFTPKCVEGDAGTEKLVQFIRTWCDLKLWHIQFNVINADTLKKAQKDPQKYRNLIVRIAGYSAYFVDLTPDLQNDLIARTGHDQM
# [4] = molecular target: T2, Tpa (taurine:pyruvate aminotransferase); assay: deamination to sulfoacetaldehyde; LC-MS; format: biochemical
# [5] = tested on: O=S(=O)(O)CCO; assay: purified protein; details: anoxic; IslB-activated enzyme; NADH in coupling assay
# [6] = substrate: O=S(=O)(O)CCO; assay: coupled spectrophotometric assay with yeast alcohol dehydrogenase; format: biochemical, Desulfovibrio desulfuricans; details: anoxic; activated enzyme
# From the text: coupled spectrophotometric assay with yeast alcohol dehydrogenase on GRE IslA of D. desulfuricans DSM642 | selectivity for the cleavage of isethionate to sulfite and acetaldehyde, but a modest apparent kcat/Km
molecule,measurement,setting,value
NC(=O)C1=CN([C@@H]2O[C@H](COP(=O)(O)OP(=O)(O)OC[C@H]3O[C@@H](n4cnc5c(N)ncnc54)[C@H](O)[C@@H]3O)[C@@H](O)[C@H]2O)C=CC1 [NADH],NADH-dependent reduction to isethionate,[1]; sulfoacetaldehyde,SarD reduces sulfoacetaldehyde to isethionate in an NADH-dependent manner
NC(=O)c1ccc[n+]([C@@H]2O[C@H](COP(=O)(O)OP(=O)(O)OC[C@H]3O[C@@H](n4cnc5c(N)ncnc54)[C@H](O)[C@@H]3O)[C@@H](O)[C@H]2O)c1 [NAD^+],conversion to acetyl-CoA,[2]; acetaldehyde,it preferred NAD^+ over NADP^+
C[S+](CC[C@H](N)C(=O)O)C[C@H]1O[C@@H](n2cnc3c(N)ncnc32)[C@H](O)[C@@H]1O (some centres unmarked) [SAM],"glycyl radical installation on IslA, EPR",[3],incubated with the purified GRE IslA in the presence of SAM and acriflavine
CC=O [acetaldehyde],conversion to acetyl-CoA,[2]; NAD+,converted acetaldehyde to acetyl-CoA only in the presence of CoASH and NAD^+
CC(=O)C(=O)O [pyruvate],deamination to sulfoacetaldehyde; LC-MS,[4]; taurine,Tpa catalyzes the deamination of taurine with pyruvate to generate sulfoacetaldehyde and alanine
O=CCS(=O)(=O)O [sulfoacetaldehyde],NADH-dependent reduction to isethionate,[1]; NADH,SarD reduces sulfoacetaldehyde to isethionate in an NADH-dependent manner
"NCCS(=O)(=O)O [taurine, 2-aminoethanesulfonate]",deamination to sulfoacetaldehyde; LC-MS,[4]; pyruvate,Tpa catalyzes the deamination of taurine with pyruvate to generate sulfoacetaldehyde and alanine
IslA (isethionate sulfite-lyase) (Bilophila wadsworthia 3_1_6),Km,[5],8.1 ± 0.8 mM
same,kcat,[5],14 ± 0.4 s⁻¹
"GRE IslA of D. desulfuricans DSM642 (Desulfovibrio desulfuricans ATCC 27774) (protein, His-tagged, E. coli BL21) MSMTTCECRSPQEQRLYDKIEGREDRFRKTHPRVFRLLERFEGQKPRIDIERALYFTQSMQETEGQPLVLRWAKALMHIARNMTVYVQEDQLLLGRAGCDGRYGILYPELDGDFLDIAVRDLPTRKTSPATITPEDARRVVEEIAPYWKGKTYHEALNAALPAEVHKLTYDDPEGLISRFIVNETSSFRSSIQWVHDYEKILKRGFNSIKKEAREKLAALDPLSAKDDREKRPFLEAVMIVCDAIVLWAKRHAVLAREMAEKESDPVRKAELLRMAENAEHVPGEPARDFWEACQSQWFTQMFSRIEQKTGTTISNGRMDQYFQPYYKQDREAGKITEAQAMELLECMWVGMAEFIDMYISPTGGAFNEGYAHWEAVTVGGQTPDGRDASNDLTYLILKSKREFPLHYPDLAARIHSRAPERYLWDVAETIKYGSGFPKLINDEEIVPLYVSKGATFEEALDYAVSGCTEARMPNRDTYTSGGAYINFAAAVEMVLRNGRMKKYGDQKLGVETGDPRSFTTWDQFWNAYVEQHLLFLKTAFTQQYIINKLRAEHFAQPMGSAMHDLCMKHCIDLHQEQIPEGINLGYFEYMGLGTVVDSLAAVKKLVFEEKKLSMDKLIAAIDADFEGYEDVRALLRSAPCYGNNDEYADAIGRDIDRISVEYGNKYSMSDLGIHNDVRYVPFTSHVPFGKVVSATPNGRTDGFPLSDGSSASHGADVNGPTAVLLSNCTTKNMGLRDRAARMLNIKFTPKCVEGEQGTEKLVSFIRTFCDLKLWHVQFNVVNKGTLVAAQKDPQKYRNLIVRIAGYSAYFVDLSPDLQNDLIARTEHDVM",Km,[6],6.3 ± 0.5 mM
same,kcat,[6],12 ± 0.2 s⁻¹
